Consider five molecules from publication PMC5408667, “A structural and functional analogue of a Bowman–Birk-type protease inhibitor from Odorrana schmackeri” (Bioscience Reports, 2017).

The target in one data set is T1, Trypsin (Bos taurus, UniProt P00760).
T1 construct: gene PRSS1
T1 sequence (P00760 24-246): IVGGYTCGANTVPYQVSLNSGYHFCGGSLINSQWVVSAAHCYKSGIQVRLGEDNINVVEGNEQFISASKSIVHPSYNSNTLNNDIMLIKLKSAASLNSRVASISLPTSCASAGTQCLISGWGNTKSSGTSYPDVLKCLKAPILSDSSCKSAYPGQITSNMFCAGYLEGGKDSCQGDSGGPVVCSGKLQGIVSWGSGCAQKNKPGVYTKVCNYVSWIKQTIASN
As to the kind of experiment: Trypsin inhibition assay (synthetic peptides, Morison plot). Type of data set: biochemical. Conditions: substrate Phe-Pro-Arg-NHMec 50 μM, 37°C. The procedure:
Trypsin (10 μl from 0.1 μM stock solution in 1 mM HCl), was added to the wells of a microtitre plate containing substrate (Phe-Pro-Arg-NHMec) (50 μM) and synthetic peptide replicates (0.1–100 μM) in 10 mM phosphate buffer, pH 7.4, containing 2.7 mM KCl and 137 mM NaCl (final volume 210 μl).
(§1) Each determination was carried out in triplicate. The rate of hydrolysis of substrate was monitored continuously, at 37°C, by measuring the rate of increase in fluorescence due to production of 7-amino-4-methylcoumarin (NH2Mec) at 460 nm (excitation 360 nm) in a CytoFluor® multi-well plate reader Series 4000 spectrofluorimeter.
For potent, slow, tight-binding inhibition, the Morison equation was used to determine the inhibition constant Ki(app) by fitting the kinetic data to the equation below: (1) Vi/V0 = 1 − {[E]0 + [I] + Ki(app) − ([E]0 + [I] + Ki(app))^2−4 × [E]0 × [I]/2 × [E]0} […]
This kinetic treatment was used for the inhibition of trypsin by OSTI. Since the inhibition studies were performed in the presence of competing substrate, the true Ki value was calculated from Ki(app) using eqn (2). For trypsin, a fixed substrate concentration [S] of 50 μM was used, for these inhibition studies and in a separate experiment (performed using identical buffer and temperature conditions),a value of 73.29 μM was determined for the Michaelis constant KM, for substrate hydrolysis in the absence of OSTI. […]

A short description of data set [1]: Determination of peptide secondary structures using CD analysis. Type of data set: physicochemical. The procedure: CD measurements were performed with a JASCO J-815 CD spectrometer (Jasco, Essex, U.K.) at room temperature (20–25°C). Each peptide was dissolved in (a) water and (b) 50% (v/v) trifluoroethanol (TFE)-water to reach a concentration of 50 μM before being transferred and measured in a 0.1 cm high precision quartz cell (Hellma Analytics, Essex, U.K.). The wavelength used in CD spectrometer was from 190 to 240 nm with a scanning speed of 200 nm/min, bandwidth and data pitch are 1 and 0.5 nm respectively. CD data are expressed as the mean molar ellipticity [θ] in deg.cm^2.dmol^−1 in corresponding wavelength (nm), which is calculated using the measured ellipticity (θ, in medg) with the equation [θ] = θ/(10 × c × l), ‘c’ refers to the molar concentration of the sample (mol/l) and the term ‘l’ is the cuvette path length (cm). DichroWeb webserver (http://dichroweb.cryst.bbk.ac.uk/html/home.shtml) was used to estimate the α-helix and β-sheet content.
Figure 8 Circular dichroism spectra of OSTI and [Phe^9]-OSTI The CD spectra recorded for OSTI and [Phe^9]-OSTI (100 μM) in (A) 10 mM ammonium acetate water solution and (B) 50% 2,2,2-TFE/10 mM ammonium acetate water solution.

The next data set addresses T2, Tryptase (Homo sapiens, UniProt Q15661).
T2 construct: purchased Calbiochem, U.K
As to the kind of experiment: Tryptase inhibition assay. Type of data set: biochemical.

The target in the next data set is Chymotrypsin (Bos taurus, UniProt P00766). As to the kind of experiment: Chymotrypsin inhibition assay. In kind it is biochemical. The procedure:
Chymotrypsin (10 μl from 0.1 μM stock solution in 1 mM HCl) was added to the wells of a microtitre plate containing substrate (Succinyl–Ala–Ala–Pro–Phe–NHMec, obtained from Bachem, U.K.) (50 μM) and synthetic peptide replicates (0.1–100 μM) in 10 mM phosphate buffer, pH 7.4, containing 2.7 mM KCl and 137 mM NaCl (final volume 210 μl).
as §1
For modest binding inhibition, we first calculated the IC50 from a plot of % inhibition against inhibitor concentration [I]. The data points were fitted to the resulting curve, by non-linear regression analysis, using GraphPad Prism. The IC50 values were then converted into Ki values using the eqn (3), to account for the presence of competing substrate. (3) Ki = IC50/{1 + ([S]/KM)}
This kinetic treatment was applied to the inhibition of tryptase by OSTI and chymotrypsin by [Phe^9]-OSTI. […] The Michaelis constant KM for tryptase against Boc-Phe-Ser-Arg-NHMec was determined to be 227.2 μM, while KM for chymotrypsin against Succinyl–Ala–Ala–Pro–Phe–NHMec was determined to be 38.4 μM. […]

Another data set has as its system chymase. Conditions: Lineweaver–Burk double-reciprocal plot; ref [24]; cited from earlier work. The source says: Tryptase and chymase are atypical serine proteases that are synthesized, stored and released by mast cells. Due to their close involvement in the pathogenesis of inflammation and some other diseases, there have been reports of BBIs possibly having utility in the treatment of such conditions.

[2] abbreviates: 50% TFE-water, CD 190–240 nm, room temperature (20–25°C), DichroWeb.
The mark [3] stands for this setting: aqueous solution, CD 190–240 nm, room temperature (20–25°C), DichroWeb.

“Also recorded” adds a separate entry of the source. Bridge positions count the residues as written; N and C are the ends. Peptide text beside a SMILES is read from it.

T2 sequence (Q15661 31-275): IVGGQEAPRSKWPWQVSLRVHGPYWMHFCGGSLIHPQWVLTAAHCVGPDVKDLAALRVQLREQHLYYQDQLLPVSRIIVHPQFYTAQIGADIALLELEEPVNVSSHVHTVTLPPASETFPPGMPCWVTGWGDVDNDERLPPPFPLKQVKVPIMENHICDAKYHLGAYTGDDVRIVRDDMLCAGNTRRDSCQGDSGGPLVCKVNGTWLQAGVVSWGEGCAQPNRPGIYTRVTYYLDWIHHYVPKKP
Procedure for Tryptase: Tryptase (2.5 μl from 1 mg/ml stock solution, Calbiochem, U.K.), was added to the wells of a microtitre plate containing substrate (Boc-Phe-Ser-Arg-NHMec, obtained from Bachem, U.K.) (50 μM) and synthetic peptide replicates (0.5, 1, 2 and 4 mM) in tryptase assay buffer, pH 7.6, containing 0.05 M Tris, 0.15 M NaCl and 0.2% (w/v) PEG 6000 (final volume 210 μl).
For modest binding inhibition, we first calculated the IC50 from a plot of % inhibition against inhibitor concentration [I]. The data points were fitted to the resulting curve, by non-linear regression analysis, using GraphPad Prism. The IC50 values were then converted into Ki values using the eqn (3), to account for the presence of competing substrate [15]. (3) Ki = IC50/{1 + ([S]/KM)}
In inhibition studies with both these proteases, their respective substrates were used at a fixed concentration [S] of 50 μM. […] The determination of these KM values was carried out using identical buffer and temperature conditions (37°C) as those employed in the inhibition studies with the two synthetic amphibian peptides.

For `CC[C@H](C)[C@@H]1NC(=O)[C@H](CO)NC(=O)[C@H](CCCCN)NC(=O)[C@H]([C@@H](C)O)NC(=O)[C@H](Cc2c[nH]c3ccccc23)NC(=O)[C@@H](NC(=O)CNC(=O)[C@H](CCCCN)NC(=O)[C@H](CC(C)C)NC(=O)[C@H](C)NC(=O)[C@H](C)N)CSSC[C@@H](C(=O)N[C@@H](Cc2ccccc2)C(N)=O)NC(=O)[C@@H]2CCCN2C(=O)[C@H](CCCCN)NC(=O)[C@@H]2CCCN2C(=O)[C@@H]2CCCN2C1=O` [OSTI, AALKGCWTKSIPPKPCF-amide] (H-AALKGCWTKSIPPKPCF-NH2; disulfide 6-16; N-terminus assumed), the “inhibition kinetics / mechanism from progress curves” value at Trypsin is “reversible, slow-binding kinetics; also recorded: two-step complexing mechanism”. In addition, the “β-sheet secondary structure (in words)” value in data set [1] (50% TFE-water, CD) is reported as “low percentage of β-sheet secondary structure”. Further, in data set [1] (setting [2]), the random coil content came to 47%, the α-helix content worked out at 8% and the β-sheet content is 45%. Also, the “canonical β-turn motif” value in data set [1] (aqueous solution, CD) is listed as “did not display canonical β-turn motif”. In data set [1] (setting [3]), this molecule had a random coil content of 42% and a β-sheet content of 51%. In addition, the “tryptase inhibition (in words)” value at Tryptase (progress curves, OSTI 0–17.4 μM) is recorded as “moderate inhibitor”.
Regarding “Boc-Phe-Ser-Arg-NHMec [fluorogenic tryptase substrate, reference compound]”, the Km at Tryptase (substrate of tryptase, identical buffer and temperature conditions (37°C), read-out: Michaelis constant KM, tryptase) came to 227 µM.
`CC[C@H](C)[C@@H]1NC(=O)[C@H](CO)NC(=O)[C@H](Cc2ccccc2)NC(=O)[C@H]([C@@H](C)O)NC(=O)[C@H](Cc2c[nH]c3ccccc23)NC(=O)[C@@H](NC(=O)CNC(=O)[C@H](CCCCN)NC(=O)[C@H](CC(C)C)NC(=O)[C@H](C)NC(=O)[C@H](C)N)CSSC[C@@H](C(=O)N[C@@H](Cc2ccccc2)C(N)=O)NC(=O)[C@@H]2CCCN2C(=O)[C@H](CCCCN)NC(=O)[C@@H]2CCCN2C(=O)[C@@H]2CCCN2C1=O` [[Phe^9]-OSTI, AALKGCWTFSIPPKPCF-amide] (H-AALKGCWTFSIPPKPCF-NH2; disulfide 6-16): the inhibition constant Ki on Chymotrypsin (substrate Succinyl–Ala–Ala–Pro–Phe–NHMec 50 μM, 10 mM phosphate buffer pH 7.4, 2.7 mM KCl, 137 mM NaCl, 37°C, from IC50 with KM 38.4 μM, mean ± S.E.M. of three independent experiments, each performed in duplicate) was 1000 ± 100 nM.
On to “Succinyl–Ala–Ala–Pro–Phe–NHMec [fluorogenic chymotrypsin substrate, reference compound]”, for which the Km at Chymotrypsin (substrate of chymotrypsin, identical buffer and temperature conditions (37°C), read-out: Michaelis constant KM, chymotrypsin) was 38.4 µM.

B1: soybean BBI: soybean Bowman–Birk protease inhibitor, two-headed protease inhibitor (protein, UniProt P01055 40-110, looked up)
Bowman-Birk type proteinase …: DDESSKPCCDQCACTKSNPPQCRCSDMRLNSCHSACKSCICALSYPAQCFCVDITDFCYEPCKPSEDDKEN
For the molecule B1, in the data set on chymase, the “mechanism of chymase inhibition” value is reported as “non-competitive mechanism”.
